Test results from US8008303B2, “Biphenyl derivatives and their use in treating hepatitis C” (AstraZeneca AB, priority 2005, dated 2011).
Read-outs that look alike come from different tables or passages of the source.

How the values were obtained:
[1] = system: HCV replicon cells Huh 9B; experiment: HCV replicon assay (luciferase readout); assay type: cell-based
Procedure, shortened: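 Compounds, made up at twice final strength (final DMSO 1%), were added to subgenomic replicon cells one day after plating. Incubation then ran 72 h at 37 °C, 5% CO2, without G418. Replication was quantified as firefly luciferase luminescence in lysed cells, with cytotoxicity assessed on a duplicate clear plate.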

[2] = system: HCV replicon cells Huh 9B; assay type: cell-based
[3] = Hepatitis C virus, 72 h, concentration reducing replicon level (luciferase activity) by 50% vs untreated cell control, 72 h incubation
[4] = concentration reducing total cell area by 50% relative to DMSO controls, methylene blue, absorbance 620 nm, 72 h incubation

Row | SMILES | IC50 [1] [µM] | TD50 [2] | IC50 [1, 3] [µM] | TD50 [2, 4]
1 | CNC(=O)c1ccc(NC(=O)c2ccc(C)c(-c3ccc(C(=O)Nc4ccc(CN5CCS(=O)(=O)CC5)cc4)cc3)c2)cc1 [Example 141, 6-Methyl-biphenyl-3,4′-dicarboxylic acid 4′-{[4-(1,1-dioxo-1lambda*6*-thiomorpholin-4-ylmethyl)-phenyl]-amide} 3-[(4-methylcarbamoyl-phenyl)-amide]] | 1 to 5 | * (key: * < 50 μM; ** > 50 μM) | – | –
2 | Cc1ccc(C(=O)Nc2ccc(C(=O)N(C)C)cc2)cc1-c1ccc(C(=O)Nc2ccc(CN3CCS(=O)(=O)CC3)cc2)cc1 [Example 142, 6-Methyl-biphenyl-3,4′-dicarboxylic acid 3-[(4-dimethylcarbamoyl-phenyl)-amide] 4′-{[4-(1,1-dioxo-1lambda*6*-thiomorpholin-4-ylmethyl)-phenyl]-amide}] | 1 to 5 | * (key: * < 50 μM; ** > 50 μM) | – | –
3 | CCc1nnc(NC(=O)c2ccc(C)c(-c3ccc(C(=O)Nc4ccc(CN5CCS(=O)(=O)CC5)cc4)cc3)c2)s1 [Example 143, 6-Methyl-biphenyl-3,4′-dicarboxylic acid 4′-{[4-(1,1-dioxo-1lambda*6*-thiomorpholin-4-ylmethyl)-phenyl]-amide} 3-[(5-ethyl-[1,3,4]thiadiazol-2-yl)-amide]] | 1 to 5 | * (key: * < 50 μM; ** > 50 μM) | – | –
4 | Cc1ccc(C(=O)Nc2ccc(C(=O)N3CCCCC3)cc2)cc1-c1ccc(C(=O)Nc2ccc(CN3CCS(=O)(=O)CC3)cc2)cc1 [Example 144, 6-Methyl-biphenyl-3,4′-dicarboxylic acid 4′-{[4-(1,1-dioxo-1lambda*6*-thiomorpholin-4-ylmethyl)-phenyl]-amide} 3-{[4-(piperidine-1-carbonyl) -phenyl]-amide}] | 1 to 5 | * (key: * < 50 μM; ** > 50 μM) | – | –
5 | Cc1cc(NC(=O)c2ccc(C)c(-c3ccc(C(=O)Nc4ccc(CN5CCS(=O)(=O)CC5)cc4)cc3)c2)sn1 [Example 145, 6-Methyl-biphenyl-3,4′-dicarboxylic acid 4′-{[4-(1,1-dioxo-1lambda*6*-thiomorpholin-4-ylmethyl)-phenyl]-amide} 3-[(3-methyl-isothiazol-5-yl)-amide]] | 1 to 5 | * (key: * < 50 μM; ** > 50 μM) | – | –
6 | Cc1ccc(C(=O)NCC2CCCCC2)cc1-c1ccc(C(=O)Nc2ccc(CN3CCS(=O)(=O)CC3)cc2)cc1 [Example 146, 6-Methyl-biphenyl-3,4′-dicarboxylic acid 3-cyclohexylmethyl-amide 4′-{[4-(1,1-dioxo-1lambda*6*-thiomorpholin-4-ylmethyl)-phenyl]-amide}] | < 1 | * (key: * < 50 μM; ** > 50 μM) | – | –
7 | Cc1ccc(C(=O)NC2CCCCCC2)cc1-c1ccc(C(=O)Nc2ccc(CN3CCS(=O)(=O)CC3)cc2)cc1 [Example 147, 6-Methyl-biphenyl-3,4′-dicarboxylic acid 3-cycloheptylamide 4′-{[4-(1,1-dioxo-1lambda*6*-thiomorpholin-4-ylmethyl)-phenyl]-amide}] | 1 to 5 | * (key: * < 50 μM; ** > 50 μM) | – | –
8 | Cc1ccc(C(=O)NC2CCCC2)cc1-c1ccc(C(=O)Nc2ccc(CN3CCS(=O)(=O)CC3)cc2)cc1 [Example 148, 6-Methyl-biphenyl-3,4′-dicarboxylic acid 3-cyclopentylamide 4′-{[4-(1,1-dioxo-1lambda*6*-thiomorpholin-4-ylmethyl)-phenyl]-amide}] | 1 to 5 | * (key: * < 50 μM; ** > 50 μM) | – | –
9 | Cc1ccc(NC(=O)C2CC2)cc1-c1ccc(NC(=O)c2ccc(CN3CCS(=O)(=O)CC3)cc2)cc1 [Example 149, N-[5′-(Cyclopropanecarbonyl-amino)-2′-methyl-biphenyl-4-yl]-4-(1,1-dioxo-1lambda*6*-thiomorpholin-4-ylmethyl)-benzamide] | – | – | < 1 | * (* < 50 μM)
10 | Cc1ccc(NC(=O)C2CCCCC2)cc1-c1ccc(NC(=O)c2ccc(CN3CCS(=O)(=O)CC3)cc2)cc1 [Example 150, N-[5′-(Cyclohexanecarbonyl-amino)-2′-methyl-biphenyl-4-yl]-4-(1,1-dioxo-1lambda*6*-thiomorpholin-4-ylmethyl)-benzamide] | – | – | < 1 | * (* < 50 μM)
11 | Cc1ccc(C(=O)Nc2ccc(N3CCOCC3)cc2)cc1-c1ccc(NC(=O)c2ccc(CN3CCS(=O)(=O)CC3)cc2)cc1 [Example 151, 4′-[4-(1,1-Dioxo-1lambda*6*-thiomorpholin-4-ylmethyl)-benzoylamino]-6-methyl-biphenyl-3-carboxylic acid (4-morpholin-4-yl-phenyl)-amide] | – | – | < 1 | * (* < 50 μM)
12 | Cc1ccc(NC(=O)N2CCOCC2)cc1-c1ccc(C(=O)Nc2ccc(CN3CCS(=O)(=O)CC3)cc2)cc1 [Example 152, Morpholine-4-carboxylic acid {4′-[4-(1,1-dioxo-1lambda*6*-thiomorpholin-4-ylmethyl)-phenylcarbamoyl]-6-methyl-biphenyl-3-yl}-amide] | – | – | < 1 | ** (** > 50 μM)
13 | Cc1ccc(NC(=O)c2ccco2)cc1-c1ccc(C(=O)Nc2ccc(CN3CCS(=O)(=O)CC3)cc2)cc1 [Example 153, Furan-2-carboxylic acid {4′-[4-(1,1-dioxo-1lambda*6*-thiomorpholin-4-ylmethyl)-phenylcarbamoyl]-6-methyl-biphenyl-3-yl}-amide] | – | – | < 1 | * (* < 50 μM)
14 | Cc1ccc(NC(=O)c2ccc(Br)cc2)cc1-c1ccc(C(=O)Nc2ccc(CN3CCS(=O)(=O)CC3)cc2)cc1 [Example 154, 5′-(4-Bromo-benzoylamino)-2′-methyl-biphenyl-4-carboxylic acid [4-(1,1-dioxo-1lambda*6*-thiomorpholin-4-ylmethyl)-phenyl]-amide] | – | – | < 1 | * (* < 50 μM)
15 | Cc1ccc(NC(=O)c2cccs2)cc1-c1ccc(C(=O)Nc2ccc(CN3CCS(=O)(=O)CC3)cc2)cc1 [Example 155, Thiophene-2-carboxylic acid {4′-[4-(1,1-dioxo-1lambda*6*-thiomorpholin-4-ylmethyl)-phenylcarbamoyl]-6-methyl-biphenyl-3-yl}-amide] | – | – | < 1 | * (* < 50 μM)
16 | Cc1ccc(NC(=O)c2cccnc2)cc1-c1ccc(C(=O)Nc2ccc(CN3CCS(=O)(=O)CC3)cc2)cc1 [Example 156, N-{4′-[4-(1,1-Dioxo-1lambda*6*-thiomorpholin-4-ylmethyl)-phenylcarbamoyl]-6-methyl-biphenyl-3-yl}-nicotinamide] | – | – | 1 to 5 | * (* < 50 μM)
17 | Cc1ccc(NC(=O)c2cccn2C)cc1-c1ccc(C(=O)Nc2ccc(CN3CCS(=O)(=O)CC3)cc2)cc1 [Example 157, 1-Methyl-1H-pyrrole-2-carboxylic acid {4′-[4-(1,1-dioxo-1lambda*6*-thiomorpholin-4-ylmethyl)-phenylcarbamoyl]-6-methyl-biphenyl-3-yl}-amide] | – | – | < 1 | * (* < 50 μM)
18 | Cc1ccc(NC(=O)C2CCCCC2)cc1-c1ccc(C(=O)Nc2ccc(CN3CCS(=O)(=O)CC3)cc2)cc1 [Example 158, 5′-(Cyclohexanecarbonyl-amino)-2′-methyl-biphenyl-4-carboxylic acid [4-(1,1-dioxo-1lambda*6*-thiomorpholin-4-ylmethyl)-phenyl]-amide] | – | – | < 1 | * (* < 50 μM)
19 | Cc1ccc(NC(=O)c2ccc(F)cc2)cc1-c1ccc(C(=O)Nc2ccc(CN3CCS(=O)(=O)CC3)cc2)cc1 [Example 159, 5′-(4-Fluoro-benzoylamino)-2′-methyl-biphenyl-4-carboxylic acid [4-(1,1-dioxo-1lambda*6*-thiomorpholin-4-ylmethyl)-phenyl]-amide] | – | – | < 1 | * (* < 50 μM)
20 | Cc1ccc(C(=O)Nc2ccc(C)c(-c3ccc(C(=O)Nc4ccc(CN5CCS(=O)(=O)CC5)cc4)cc3)c2)cc1 [Example 160, 2′-Methyl-5′-(4-methyl-benzoylamino)-biphenyl-4-carboxylic acid [4-(1,1-dioxo-1lambda*6*-thiomorpholin-4-ylmethyl)-phenyl]-amide] | – | – | < 1 | * (* < 50 μM)
21 | Cc1ccc(NC(=O)c2ccc(CN3CCS(=O)(=O)CC3)cc2)cc1-c1ccc(C(=O)Nc2ccc(CN3CCS(=O)(=O)CC3)cc2)cc1 [Example 161, 5′-[4-(1,1-Dioxo-1lambda*6*-thiomorpholin-4-ylmethyl)-benzoylamino]-2′-methyl-biphenyl-4-carboxylic acid [4-(1,1-dioxo-1lambda*6*-thiomorpholin-4-ylmethyl)-phenyl]-amide] | – | – | 1 to 5 | * (* < 50 μM)
22 | Cc1ccc(NC(=O)c2ccc(CN3CCS(=O)(=O)CC3)cc2)cc1-c1ccc(C(=O)NCc2cccc(Cl)c2)cc1 [Example 162, 5′-[4-(1,1-Dioxo-1lambda*6*-thiomorpholin-4-ylmethyl)-benzoylamino]-2′-methyl-biphenyl-4-carboxylic acid 3-chloro-benzylamide] | – | – | 1 to 5 | * (* < 50 μM)
23 | Cc1ccc(NC(=O)CCC2CCCCC2)cc1-c1ccc(C(=O)Nc2ccc(CN3CCS(=O)(=O)CC3)cc2)cc1 [Example 163, 5′-(3-Cyclohexyl-propionylamino)-2′-methyl-biphenyl-4-carboxylic acid [4-(1,1-dioxo-1lambda*6*-thiomorpholin-4-ylmethyl)-phenyl]-amide] | – | – | < 1 | * (* < 50 μM)
24 | Cc1ccc(NC(=O)C2CCCCCC2)cc1-c1ccc(C(=O)Nc2ccc(CN3CCS(=O)(=O)CC3)cc2)cc1 [Example 164, 5′-(Cycloheptanecarbonyl-amino)-2′-methyl-biphenyl-4-carboxylic acid [4-(1,1-dioxo-1lambda*6*-thiomorpholin-4-ylmethyl)-phenyl]-amide] | – | – | < 1 | * (* < 50 μM)
